Laboratory results as given in US20240245677A1, “SELECTED COMPOUNDS FOR TARGETED DEGRADATION OF BRD9” (C4 THERAPEUTICS, INC., priority 2021, published 2024).
In brackets after ≈: the same amount, converted by molar mass. Where two headings read alike, the source gives them in different places.

How the values were obtained:
[1] = Hygroscopicity by DVS at 25° C.; format: physicochemical; settings: for water uptake: DVS 25° C.
Procedure: Hygroscopicity of Form A and Form N was investigated by DVS at 25° C. […] Form A converted to Form K after the DVS test. Form K is a metastable hydrate. It reverted back to Form A after exposure to ambient condition.
Hygroscopicity of the free base Pattern A* and the urea cocrystal Form P were evaluated by DVS at 25° C.

[2] = pH 6.5
[3] = physchem; settings: 37 °C, thermodynamic from solid
[4] = Variable temperature XRPD (VT-XRPD) experiments; format: physicochemical
Procedure: To investigate form conversion behavior, variable temperature XRPD experiments were conducted for hydrate Pattern A, hydrate Pattern C, hydrate Pattern F and hetero-solvate Pattern L.
Based on DSC and TGA results, variable temperature XRPD was conducted for Pattern A, at different temperatures, including 25° C., 110° C. and 25° C.
Based on DSC and TGA results, variable temperature XRPD was conducted for Pattern B, at different temperatures, including 25° C., 80° C., 130° C. and 25° C. The sample after heating-cooling was placed at 25° C./75% RH condition for 1 day and investigated by XRPD.
Based on DSC and TGA results, variable temperature XRPD was conducted for Pattern C, at different temperatures, including 25° C., 110° C. and 25° C.
Based on DSC and TGA results, variable temperature XRPD was conducted for Pattern F at different temperatures, including 25° C., 110° C. and 25° C. The sample after heating-cooling was placed at 25° C./75% RH condition for 1 day and investigated by XRPD.
Based on DSC and TGA results, variable temperature XRPD was conducted for Pattern L, at different temperatures, including 25° C., 100° C., 140° C., 180° C. and 25° C. The sample after heating-cooling was placed at 25° C./92% RH condition for 24 h and investigated by XRPD.

[5] = Variable humidity XRPD (VH-XRPD) experiments; format: physicochemical
Procedure: Based on DVS results, variable humidity XRPD was conducted for Pattern A at different humidity conditions, including 40%, 70%, 90%, 70%, 40%, 20%, 0%, 40% RH conditions.
Based on DVS results, variable humidity XRPD was conducted for Pattern N, at different humidity conditions, including 40%, 70%, 90%, 70%, 40%, 20%, 0%, 40% RH conditions.

[6] = Photostability study; settings: 1.2 million lux-hrs at 25° C., open container
[7] = Solubility study in aqueous media at 37° C.
[8] = Bulk stability study (1 week stress conditions; drying); settings: one week
[9] = Mouse Hepatocyte Stability Assay; format: in vitro ADME; settings: CD-1, cryopreserved hepatocytes
Procedure: The metabolic stability of Compound 1 was evaluated using cryopreserved hepatocytes from mice, rats, dogs, cynomolgus monkeys, and humans.
50 μL of 1 mM intermediate solutions for each test compound was prepared by adding 5 μL of 10 mM stock solution to 45 μL of a 1:1 mixture of water and acetonitrile. A 2 μM working stocks for each test compound were prepared in incubation media, InvitroGRO™ KHB (Bio IVT, Westbury, NY, USA), by adding 2 μL of 1 mM intermediate stock to 998 μL of incubation media.
To thaw the hepatocytes, InvitroGRO™ HT thawing medium (BioIVT, Westbury, NY, USA) was prewarmed to 37° C., and 48 mL of warmed thawing medium was transferred to a sterile 50 mL conical tube. The hepatocyte vial was removed from the liquid nitrogen Dewar, and gently thawed in a water bath at 37° C. for 1-2 minutes, then the contents of the vial were emptied into a conical tube with prewarmed InvitroGRO HT medium. 1 mL of prewarmed InvitroGRO HT medium was added to each emptied hepatocyte vial to resuspend any remaining cells, and the contents were pipetted into the hepatocyte suspension. The tube containing the hepatocyte suspension was centrifuged at 50*g for 5 minutes. The supernatant was removed carefully, and the remaining pellet was resuspended by adding 1 mL of incubation media, InvitroGRO KHB, and gently shaking until there were no clumps.
Cell viability was determined using the trypan blue method. 25 μL of hepatocyte cell suspension was added to a trypan blue (TB) solution (containing 775 μL InvitroGRO KHB and 200 μL of Trypan Blue). Cell count was taken using a hemacytometer.
For mouse hepatocytes, 200 μL of hepatocytes (0.8×10^6 cells/mL) were added to the wells of a 48 well plate (Catalog No. 92048, TPP Techno Plastic Products AG, Trasadingen, Switzerland) and pre-incubated for 30 minutes at 37° C. For rat, dog, monkey, […], 200 μL of hepatocytes (2×10^6 cells/mL) were added to the wells of a 48 well plate (Catalog No. 92048, TPP Techno Plastic Products AG, Trasadingen, Switzerland) and pre-incubated for 30 minutes at 37° C.
For all species of hepatocytes, once the pre-incubation period was complete, 200 μL of 2 μM working stock of test compound was added to the wells of the plate, and the plate was vortexed on a Vibramax™ 100 (P/N 544-21200-00, Heidolph Instruments GmbH & Co. KG, Schwabach, Germany) at 500 rpm in a 37° C. CO2 incubator (Model No. 51026280, ThermoFisher Scientific, Waltham, MA, USA). At each time point of 0, 15, 30, 60, 90, and 120 minutes, 50 μL of incubation mixture was precipitated with 200 μL of acetonitrile containing internal standard.
At the end of the experiment, the samples were centrifuged at 4000 rpm for 10 minutes. The supernatant was collected and diluted with an equal amount of water, and vortexed for 5 minutes at 900 rpm in MixMate® (Model No. 5353, Eppendorf SE, Hamburg, Germany).
The supernatant samples were submitted for LC-MS/MS analysis.
Calculations of the results included the following: […]

[10] = pH 4.5, 50 mM acetate buffer, 24 h

COc1cc(-c2cn(C)c(=O)c(C)c2C)cc(OC)c1CN1CC[C@H](N2CCN(c3ccc(N[C@H]4CCC(=O)NC4=O)cc3F)CC2)C(F)(F)C1 [Form P]
water uptake ([1]; 95% RH): 3.1% | water uptake ([1]; below 90% RH): 1.6% | Solubility [2]: low solubility (close to LOQ) | Solubility ([3]; pH 1, simulated gastric fluid): > 2000 µg/mL | Solubility ([3]; pH 1.8, simulated gastric fluid): > 2000 µg/mL | Solubility ([3]; pH 4.5, aqueous buffer): 100 to 300 µg/mL (≈ 141 to 422 µM) | Solubility ([3]; pH 5, fessif): 100 to 300 µg/mL (≈ 141 to 422 µM)

COc1cc(-c2cn(C)c(=O)c(C)c2C)cc(OC)c1CN1CC[C@H](N2CCN(c3ccc(N[C@H]4CCC(=O)NC4=O)cc3F)CC2)C(F)(F)C1 [Pattern A*]
XRPD ([4]; 25° C. (start)): Pattern A | XRPD ([4]; 25° C./50% RH hold 2 h): Pattern A | XRPD ([4]; Cool to 25° C.): Metastable Pattern J | XRPD ([4]; Heat to 110° C.): Metastable Pattern J | XRPD ([5]; 0% RH): Pattern J | XRPD ([5]; 0% RH hold 6 h): Pattern J | XRPD ([5]; 0% RH hold 2 days): Pattern J | XRPD ([5]; 20% RH): Pattern A | XRPD ([5]; 40% RH (after 90% RH, falling)): Pattern A | XRPD ([5]; 40% RH (first step)): Pattern A | XRPD ([5]; 40% RH (last step, after 0% RH)): Pattern A | XRPD ([5]; 70% RH (after 90% RH)): Metastable Pattern K | XRPD ([5]; 70% RH (humidity rising)): Metastable Pattern K | XRPD ([5]; 90% RH): Metastable Pattern K | water uptake from 40% RH to 95% RH ([1]; DVS): 6.0% water uptake from | water uptake ([1]; 95% RH): about 6.0% | 1st desorp. (%) ([1]; DVS, 0% RH): 0.0% | 2nd sorp. (%) ([1]; DVS, 0% RH): 0.0% | 1st desorp. (%) ([1]; DVS, 10% RH): 1.1% | 2nd sorp. (%) ([1]; DVS, 10% RH): 1.0% | 1st desorp. (%) ([1]; DVS, 20% RH): 1.8% | 2nd sorp. (%) ([1]; DVS, 20% RH): 1.5% | 1st desorp. (%) ([1]; DVS, 30% RH): 4.5% | 2nd sorp. (%) ([1]; DVS, 30% RH): 2.1% | 1st desorp. (%) ([1]; DVS, 40% RH): 6.3% | 1st sorp. (%) ([1]; DVS, 40% RH): 4.6% | 2nd desorp. (%) ([1]; DVS, 40% RH): 6.6% | 2nd sorp. (%) ([1]; DVS, 40% RH): 3.6% | 1st desorp. (%) ([1]; DVS, 50% RH): 8.5% | 1st sorp. (%) ([1]; DVS, 50% RH): 5.2% | 2nd desorp. (%) ([1]; DVS, 50% RH): 8.5% | 2nd sorp. (%) ([1]; DVS, 50% RH): 5.8% | 1st desorp. (%) ([1]; DVS, 60% RH): 9.4% | 1st sorp. (%) ([1]; DVS, 60% RH): 6.9% | 2nd desorp. (%) ([1]; DVS, 60% RH): 9.4% | 2nd sorp. (%) ([1]; DVS, 60% RH): 7.7% | 1st desorp. (%) ([1]; DVS, 70% RH): 9.7% | 1st sorp. (%) ([1]; DVS, 70% RH): 9.1% | 2nd desorp. (%) ([1]; DVS, 70% RH): 9.7% | 2nd sorp. (%) ([1]; DVS, 70% RH): 9.3% | 1st desorp. (%) ([1]; DVS, 80% RH): 1.0% | 1st sorp. (%) ([1]; DVS, 80% RH): 9.8% | 2nd desorp. (%) ([1]; DVS, 80% RH): 10.0% | 2nd sorp. (%) ([1]; DVS, 80% RH): 9.8% | 1st desorp. (%) ([1]; DVS, 90% RH): 10.3% | 1st sorp. (%) ([1]; DVS, 90% RH): 10.3% | 2nd desorp. (%) ([1]; DVS, 90% RH): 10.3% | 2nd sorp. (%) ([1]; DVS, 90% RH): 10.2% | 1st desorp. (%) ([1]; DVS, 95% RH): 10.6% | 1st sorp. (%) ([1]; DVS, 95% RH): 10.6% | 2nd desorp. (%) ([1]; DVS, 95% RH): 10.5% | 2nd sorp. (%) ([1]; DVS, 95% RH): 10.5% | degradation after exposure to light [6]: ~1% | Solubility ([7]; FaSSIF-v1 (pH 6.5)): low solubility (close to LOQ) | pH ([7]; FaSSIF-v1, pH 6.5, 2 h): pH: 6.5 | Solubility ([7]; FaSSIF-v1, pH 6.5, 2 h, target 10 mg/5 mL, LOQ: 50 μg/mL): <LOQ | XRPD of residual solids ([7]; FaSSIF-v1, pH 6.5, 24 h): No form change | pH ([7]; FaSSIF-v1, pH 6.5, 24 h): pH: 6.5 | Solubility ([7]; FaSSIF-v1, pH 6.5, 24 h, target 10 mg/5 mL, LOQ: 50 μg/mL): 80 µg/mL (≈ 113 µM) | pH ([7]; FeSSIF-v1, pH 5.0, 2 h): pH: 5.0 | Solubility ([7]; FeSSIF-v1, pH 5.0, 2 h, target 10 mg/5 mL, LOQ: 50 μg/mL): 170 µg/mL (≈ 239 µM) | pH ([7]; FeSSIF-v1, pH 5.0, 24 h): pH: 5.0 | Solubility ([7]; FeSSIF-v1, pH 5.0, 24 h, target 10 mg/5 mL, LOQ: 50 μg/mL): 210 µg/mL (≈ 295 µM) | pH ([7]; SGF, pH 1.8, 2 h): pH: 2.4 | Solubility ([7]; SGF, pH 1.8, 2 h, target 10 mg/5 mL, LOQ: 50 μg/mL): >2000 µg/mL | pH ([7]; SGF, pH 1.8, 24 h): pH: 2.4 | Solubility ([7]; SGF, pH 1.8, 24 h, target 10 mg/5 mL, LOQ: 50 μg/mL): >2000 µg/mL | pH ([7]; pH 1.0 (0.1N HCl), 2 h): pH: 1.0 | Solubility ([7]; pH 1.0 (0.1N HCl), 2 h, target 10 mg/5 mL, LOQ: 50 μg/mL): >2000 µg/mL | pH ([7]; pH 1.0 (0.1N HCl), 24 h): pH: 1.0 | Solubility ([7]; pH 1.0 (0.1N HCl), 24 h, target 10 mg/5 mL, LOQ: 50 μg/mL): >2000 µg/mL | pH ([7]; pH 4.5, 50 mM acetate buffer, 2 h): pH: 4.5 | Solubility ([7]; pH 4.5, 50 mM acetate buffer, 2 h, target 10 mg/5 mL, LOQ: 50 μg/mL): 260 µg/mL (≈ 366 µM) | XRPD of residual solids [7, 10]: No form change | pH [7, 10]: pH: 4.5 | Solubility ([7]; pH 4.5, 50 mM acetate buffer, 24 h, target 10 mg/5 mL, LOQ: 50 μg/mL): 120 µg/mL (≈ 169 µM) | chemical stability ([8]; 25° C./92% RH open, 40° C./75% RH open, 60° C. tight container): good chemical stability | physical stability ([8]; 25° C./92% RH, open container): agglomeration | physical stability ([8]; 40° C./75% RH, open container): physically stable | physical stability ([8]; 60° C., tight container): crystallinity decrease

CC(C)NCC(O)COc1cccc2ccccc12 (stereo not shown) [Propranolol, reference compound]
half-life at 1 µM [9]: 16.3 min
